From patent US6376510B1, “Neuromuscular relaxants” (Newlaxant LLC, priority 1997, dated 2002) come the findings set out here.

By ED50 is commonly meant the midpoint of the dose-response relation.

Like-named read-outs stand apart in the source and are kept apart here.

One data set has as its system rabbits. The data set is described as follows: In vivo neuromuscular block and cardiovascular side effects, rabbit (Example 8, Table 7). The settings on record: for ED50: intravenous dose causing 50% neuromuscular block; for RI (recovery index): spontaneous recovery, 25-75% neuromuscular response; for Onset: time to 80-85% neuromuscular block.
The subject of data set [1] is anesthetized juvenile pigs. The experiment in a line: animal or person. The class given is in vivo. The settings on record: pig; for ED50: intravenous dose causing 50% neuromuscular block; for RI (recovery index): spontaneous recovery, 25-75% neuromuscular response; for Onset: time to 80-85% neuromuscular block. From the text:
Both electromyographic and mechanomyographic responses can be quantified.
The techniques described under a) and b) were employed in other species as needed with the modification that juvenile pigs were initially anesthetized with inhalation of halothane (Table 5) and monkeys were initially sedated with intramuscular ketamine injections prior to inducing and maintaining general anesthesia using pentobarbital and propofol administered intravenously (Table 6).

Data set [2] concerns anesthetized rats (evoked responses of anterior tibial muscle). The data set is described as follows: In vivo neuromuscular block and cardiovascular side effects, anesthetized rat (Example 8, Table 3). The settings on record: for RI (recovery index): spontaneous recovery, 25-75% neuromuscular response; for Onset: time to 80-85% neuromuscular block. The text has this:
The neuromuscular blocking activity and other effects (e.g. cardiovascular side effects) of selected agents were investigated on several different experimental animals. Justification for this approach lies in the commonly known fact that the pharmacodynamic and pharmacokinetic properties of these agents are markedly variable from species to species. Therefore, the most important aspects of the projected therapeutic utility of these agents, e.g., neuromuscular blocking potency, onset and duration of action, and side effects cannot be ascertained in “in vitro” preparations or by using only one species of animals.
a) Adult, male albino rats were anesthetized with pentobarbital injected intraperitoneally. The trachea was cannulated for artificial respiration via a small animal respirator. The carotid artery was cannulated for recording blood pressure via a transducer and heart rate by a cardiotachograph on a polygraph. One external jugular vein was cannulated for i.v. drug administration. Neuromuscular function was monitored by electromyography, recording evoked responses from the anterior tibial muscle as a result of supramaximal nerve stimuli consisting of single or “train-of-four” rectangular pulses of 0.1-0.2 msec duration every 10-12 seconds, delivered to the sciatic or common peroneal nerve by a laboratory nerve stimulator. Another mode of stimulation included repeated single stimuli delivered at 0.1 Hz or 1 Hz. […] The agents were dissolved in physiologic saline and injected intravenously at appropriate time intervals. The intensity, onset, and duration of neuromuscular block and its type were determined with each agent. Through administering several doses, the doses corresponding to 50%, 80% and 90% neuromuscular block were determined. All agents were compared with selected standard neuromuscular blocking compounds, e.g. succinylcholine, pancuronium, mivacurium, or rocuronium.
Onset=time in minutes to 80-85% neuromuscular block.
RI=recovery index, minutes, spontaneous recovery, 25-75% neuromuscular response.
VB=vagal block, %, at 80-85% neuromuscular blocking dose.
ΔHR=change in heart rate, %, at 80-85% neuromuscular blocking dose.
ΔBP=change in arterial blood pressure, %, at 80-85% neuromuscular blocking dose.

Setting [3] is: Oryctolagus cuniculus, read-out: ED50.
The mark [4] stands for this setting: at 80-85% neuromuscular blocking dose.
Setting [5] is: rat, at 80-85% neuromuscular blocking dose.
Where [6] appears, read: rat, intravenous dose causing 50% neuromuscular block.

On to `CCC(=O)Oc1ccc(C[N+]2(C)[C@@H]3CC[C@H]2C[C@@H](OC(=O)CCCC(=O)O[C@H]2C[C@H]4CC[C@@H](C2)[N+]4(C)Cc2ccc(OC(=O)CC)c(OC(=O)CC)c2)C3)cc1OC(=O)CC.[Br-].[Br-]` (stereo partly drawn) [bis[N-(3,4-dipropionyloxybenzyl)tropanium-3α-yl]glutarate dibromide], for which the ED50 is 0.065 mg/kg with rabbits (setting [3]); 0.45 mg/kg in data set [1] (Sus scrofa, read-out: ED50); 0.3 mg/kg in data set [2] (Rattus norvegicus, iv). The “ΔBP (change in arterial blood pressure)” value (with rabbits (setting [4]); in data set [1] (setting [4]); in data set [2] (setting [5])) was 0% each time. Moreover, the “ΔH (change in heart rate)” value (in the data set on rabbits (setting [4]); in data set [1] (setting [4]); in data set [2] (setting [5])) was 0% in each case. Moreover, the “RI (recovery index)” value was determined as 0.8 min with rabbits, 0.6 min in data set [1] and 0.5 min in data set [2] (rat). In addition, the figures for the Onset (with rabbits; in data set [1]; in data set [2] (rat)) were 1 min, 1.1 min and 0.7 min, respectively. Besides, the “VB (vagal block)” value in data set [1] (setting [4]) is given as 70%; in data set [2] (setting [5]), 0%.

For `CCC(=O)Oc1ccc(C[N+]2(C)[C@@H]3CC[C@H]2C[C@@H](OC(=O)CCCCC(=O)O[C@H]2C[C@H]4CC[C@@H](C2)[N+]4(C)Cc2ccc(OC(=O)CC)c(OC(=O)CC)c2)C3)cc1OC(=O)CC.[Br-].[Br-]` (stereo partly drawn) [bis[N-(3,4-dipropionyloxybenzyl)tropanium-3α-yl]adipate dibromide], the ED50 stood at 0.075 mg/kg with rabbits (setting [3]); 0.3 mg/kg in data set [1] (Sus scrofa, read-out: ED50); 0.217 mg/kg in data set [2] (Rattus norvegicus, iv). The “ΔBP (change in arterial blood pressure)” value (in the data set on rabbits (setting [4]); in data set [1] (setting [4]); in data set [2] (setting [5])) was 0% each time. Moreover, the “ΔH (change in heart rate)” value (in the data set with rabbits (setting [4]); in data set [1] (setting [4]); in data set [2] (setting [5])) was 0% each time. Moreover, the results for the “RI (recovery index)” value (in the data set on rabbits; in data set [1]; in data set [2] (rat)) were 0.65 min, 0.75 min and 0.4 min, respectively. Moreover, the figures for the Onset (in the data set with rabbits; in data set [1]; in data set [2] (rat)) were 0.9 min, 0.65 min and 0.6 min, respectively. The “VB (vagal block)” value in data set [1] (setting [4]) turned out to be 65%; in data set [2] (setting [5]), 18%.

For the molecule `CCC(=O)Oc1ccc(C[N+]2(C)C3CCCC2CC(OC(=O)CCCCC(=O)OC2CC4CCCC(C2)[N+]4(C)Cc2ccc(OC(=O)CC)c(OC(=O)CC)c2)C3)cc1OC(=O)CC.[Br-].[Br-]` (centres unmarked) [bis[N-(3,4-dipropionyloxybenzyl)granataninium-3-yl]adipate dibromide], the “ΔBP (change in arterial blood pressure)” value in the data set with rabbits (in vivo) is 0%; in data set [1] (in vivo), 0%; in data set [2] (rat, in vivo) it was −4%. Besides, the “ΔH (change in heart rate)” value in the data set on rabbits (in vivo) came to 0%; in data set [1] (in vivo), 0%; in data set [2] (rat, in vivo), 0%. The ED50 in the data set with rabbits was found to be 0.16 mg/kg; in data set [1], 0.275 mg/kg; in data set [2] (setting [6]), 0.32 mg/kg. Further, the results for the “RI (recovery index)” value (in the data set on rabbits; in data set [1]; in data set [2] (rat)) were 0.5 min, 0.4 min and 0.35 min, respectively. Besides, the results for the Onset (with rabbits; in data set [1]; in data set [2] (rat)) were 0.5 min, 0.45 min and 0.4 min, respectively. In addition, the “VB (vagal block)” value turned out to be 43% in data set [1] (in vivo) and 0% in data set [2] (rat, in vivo).

Regarding `COc1cc(C[N+]2(C)C3CCC2CC(OC(=O)C2C4C=CC(C4)C2C(=O)OC2CC4CCC(C2)[N+]4(C)Cc2cc(OC)c(OC(C)=O)c(OC)c2)C3)cc(OC)c1OC(C)=O.[Br-].[Br-]` (stereo not drawn) [bis[N-(4-acetoxy-3,5-dimethoxybenzyl)tropanium-3α-yl]trans-3,6-endomethylene-1,2,3,6-tetrahydrophthalate dibromide], the “ΔBP (change in arterial blood pressure)” value (with rabbits (in vivo); in data set [1] (in vivo); in data set [2] (setting [5])) was 0% in each case. In addition, the “ΔH (change in heart rate)” value (with rabbits (in vivo); in data set [1] (in vivo); in data set [2] (setting [5])) was 0% throughout. Besides, the ED50 with rabbits stood at 0.145 mg/kg; in data set [1], 0.343 mg/kg; in data set [2] (setting [6]) it was 0.2 mg/kg. In addition, the “RI (recovery index)” value in the data set with rabbits was determined as 0.45 min; in data set [1], 2 min; in data set [2] (rat) it was 0.8 min. Moreover, the Onset turned out to be 0.45 min in the data set on rabbits, 0.54 min in data set [1] and 0.7 min in data set [2] (rat). Also, the “VB (vagal block)” value in data set [1] (in vivo) came to 26%; in data set [2] (setting [5]) it was 20%.

With `CCC(=O)Oc1ccc(C[N+]2(C)[C@@H]3CC[C@H]2C[C@@H](OC(=O)C2CCC2C(=O)O[C@H]2C[C@H]4CC[C@@H](C2)[N+]4(C)Cc2ccc(OC(=O)CC)c(OC(=O)CC)c2)C3)cc1OC(=O)CC.[Br-].[Br-]` (stereo partly drawn) [bis[N-(3,4-dipropionyloxybenzyl)tropanium-3α-yl]cyclobutane-1,2-dicarboxylate dibromide], the ED50 came out at 0.128 mg/kg with rabbits (setting [3]); 0.317 mg/kg in data set [1] (Sus scrofa, read-out: ED50); 0.238 mg/kg in data set [2] (Rattus norvegicus, iv). The “ΔBP (change in arterial blood pressure)” value (in the data set with rabbits (setting [4]); in data set [1] (setting [4]); in data set [2] (setting [5])) was 0% each time. The “ΔH (change in heart rate)” value (in the data set with rabbits (setting [4]); in data set [1] (setting [4]); in data set [2] (setting [5])) was 0% each time. Further, the “RI (recovery index)” value in the data set on rabbits is 0.5 min; in data set [1] it was 0.6 min; in data set [2] (rat), 0.6 min. Moreover, the Onset in the data set on rabbits worked out at 0.87 min; in data set [1], 0.7 min; in data set [2] (rat), 0.6 min. The figures for the “VB (vagal block)” value in data set [1] (setting [4]) and in data set [2] (setting [5]) were 50% and 17%, respectively.

In the case of `COc1cc(C[N+]2(C)[C@@H]3CC[C@H]2C[C@@H](OC(=O)CCCCCCCCCC(=O)O[C@H]2C[C@H]4CC[C@@H](C2)[N+]4(C)Cc2cc(OC)c(OC)c(OC)c2)C3)cc(OC)c1OC.[Br-].[Br-]` (stereo partly drawn) [bis[N-(3,4,5-trimethoxybenzyl)tropanium-3α-yl]1,9-nonanedicarboxylate dibromide], the median effective dose (ED50) is 0.07 mg/kg in the data set on rabbits (setting [3]); 0.31 mg/kg in data set [1] (Sus scrofa, read-out: ED50); 0.18 mg/kg in data set [2] (Rattus norvegicus, iv). The “ΔBP (change in arterial blood pressure)” value (in the data set on rabbits (setting [4]); in data set [1] (setting [4]); in data set [2] (setting [5])) was 0% throughout. For the same molecule, the “ΔH (change in heart rate)” value (with rabbits (setting [4]); in data set [1] (setting [4]); in data set [2] (setting [5])) was 0% each time. The “RI (recovery index)” value stood at 2.5 min in the data set on rabbits, 2.4 min in data set [1] and 1.8 min in data set [2] (rat). Further, the Onset with rabbits amounted to 1.3 min; in data set [1] it was 1.5 min; in data set [2] (rat), 0.8 min. Also, the entries for the “VB (vagal block)” value in data set [1] (setting [4]) and in data set [2] (setting [5]) were 40% and 10%, respectively.

`CC(=O)Oc1ccc(C[N+]2(C)C3CCC2CC(OC(=O)C2C4C=CC(C4)C2C(=O)OC2CC4CCC(C2)[N+]4(C)Cc2ccc(OC(C)=O)c(OC(C)=O)c2)C3)cc1OC(C)=O.[Br-].[Br-]` (stereo not drawn) [bis[N-(3,4-diacetoxybenzyl)tropanium-3β-yl]trans-3,6-endomet] [bis[N-(3,4-diacetoxybenzyl)tropanium-3β-yl]trans-3,6-endomethylene-1,2,3,6-tetrahydrophthalate dibromide]: the figures for the “ΔBP (change in arterial blood pressure)” value (with rabbits (in vivo); in data set [1] (in vivo); in data set [2] (setting [5])) were 0%, −5% and 0%, respectively. Besides, the results for the “ΔH (change in heart rate)” value (with rabbits (in vivo); in data set [1] (in vivo); in data set [2] (setting [5])) were 0%, −10% and 0%, respectively. Further, the ED50 was 0.21 mg/kg with rabbits, 0.16 mg/kg in data set [1] and 0.258 mg/kg in data set [2] (setting [6]). Also, the “RI (recovery index)” value is 0.75 min in the data set on rabbits, 2 min in data set [1] and 0.5 min in data set [2] (rat). Moreover, the Onset with rabbits came to 0.8 min; in data set [1], 1.1 min; in data set [2] (rat), 0.68 min. Besides, the “VB (vagal block)” value in data set [1] (in vivo) came to 100%; in data set [2] (setting [5]), 45%.
